Measured values from patent publication EP4789715A2, “METHODS FOR TREATING NEOINTIMAL HYPERPLASIA USING F11R/JAM-A INHIBITORS” (The Research Foundation for The State University of New York, priority 2019, dated 2026).
Non-standard residues stand in square brackets, D forms with d. Residues, ends and D or L forms follow the SMILES beside them.

System: uremic C57BL/6 mice
Experiment: carotid artery ligation (mid-focal LCA stenosis) model of neointimal hyperplasia in 5/6-nephrectomized uremic mice
Type: in vivo
Conditions: for mean Intima Index (ratio of intima area/intima + media area): intraperitoneal injections for 21 days, n=7
Procedure: Carotid artery ligation was performed on 14 uremic C57BL/6 mice that underwent 5/6 nephrectomy. One week after nephrectomy, partial ligation of the left carotid artery (LCA) was performed on each mouse. Focal LCA stenosis was created by placing 9-0 nylon suture at 1mm proximal to the carotid bifurcation (mid-focal stenosis) around the artery using a 35-gauge blunt needle (World precision Instruments, Inc., Sarasota, FL). Then the needle mandrel was gently removed to restore blood flow.
Mice were fed a regular mouse diet and divided into 2 groups of 7 mice each; the experimental group received Peptide 4D while the Control group received saline injections by intraperitoneal route for 21 days, as this was the time shown in earlier studies to correlate with development of neointimal hyperplasia following partial ligation of the carotid artery.
The mice were then euthanized on day 21 and both LCA and right carotid artery (RCA) were excised for analysis. Specimens were embedded in paraffin. Serial sections (6 µm thick) were collected at 200-µm intervals of the LCA from mid-focal stenosis as well as from the RCA serving as lesion control. Data were analyzed qualitatively and quantitatively using Image J software. The two groups were compared for differences in mean Intima Area and Intima Index, defined as the ratio of intima area divided by intima plus media area.

Compound: CC(C)[C@H](NC(=O)[C@H](CO)NC(=O)[C@H](N)CCCCN)C(=O)N[C@H](C(=O)N[C@H](CCCNC(=N)N)C(=O)N[C@@H](CCC(=O)O)C(=O)N[C@@H](CC(=O)O)C(=O)N[C@H](C(=O)NCC(=O)N[C@H](C(=O)N[C@@H](Cc1ccc(O)cc1)C(=O)N[C@H](C(=O)N[C@@H](CS)C(N)=O)[C@@H](C)O)[C@@H](C)O)[C@@H](C)O)[C@@H](C)O [Peptide 4D, NH2-(dK)-SVT-(dR)-EDTGTYTC-CONH2] (H-[dK]SVT[dR]EDTGTYTC-NH2)
- experimental mice LCA with severe neointimal hyperplasia (7 treated mice, day 21, all LCA in control mice developed severe neointimal hyperplasia, two with complete luminal occlusion): only one had severe neointimal hyperplasia
- mean Intima Index (ratio of intima area/intima + media area) (average from 10 LCA locations, FIG. 6, control (0.27 + 0.13), p = 0.0079): significantly less mean intima/intima + media ratio
- mean Intima Index (ratio of intima area/intima + media area) (average from 10 LCA locations, FIG. 6, control (0.27 + 0.13), p = 0.0079, listed as peptide 4D): 0.089 + 0.081
- arterial lumen (H&E-stained cross sections of the carotid artery) (different distances from the point of ligation, compared to occluded lumens in the controls, FIGs. 1A-1B): arterial lumen is preserved
- mean Intima Index (ratio of intima area/intima + media area) (from 1 LCA location with biggest focal stenosis, FIG. 7, control (0.47 + 0.15), p = 0.039): 0.31 + 0.14
- intima area relative to distance from the ligation point (mid focal stenosis morphometry of LCA, 10 locations, treated versus control untreated uremic mice, FIG. 4): significantly smaller
- neointimal hyperplasia (uremic C57BL/6 mice, carotid ligation model, 21 days of administration, overall conclusion in words): significantly inhibits neointimal hyperplasia
